Reference: article PMC4208647, “Essential role of vesicular nucleotide transporter in vesicular storage and release of nucleotides in platelets” (Physiological Reports, 2014)
Like-named read-outs stand apart in the source and are kept apart here.

Columns and labels:
Type in all cases: biochemical
[1] = target: T1, VNUT (vesicular nucleotide transporter, SLC17A9 protein) (Homo sapiens, UniProt Q9BYT1); test: inhibition of valinomycin-evoked radiolabelled substrate uptake into proteoliposomes
T1 construct: recombinant, expressed in insect cells or E. coli, octylglucoside-solubilized, Ni-NTA purified, reconstituted in asolectin liposomes
T1 sequence (Q9BYT1 1-436): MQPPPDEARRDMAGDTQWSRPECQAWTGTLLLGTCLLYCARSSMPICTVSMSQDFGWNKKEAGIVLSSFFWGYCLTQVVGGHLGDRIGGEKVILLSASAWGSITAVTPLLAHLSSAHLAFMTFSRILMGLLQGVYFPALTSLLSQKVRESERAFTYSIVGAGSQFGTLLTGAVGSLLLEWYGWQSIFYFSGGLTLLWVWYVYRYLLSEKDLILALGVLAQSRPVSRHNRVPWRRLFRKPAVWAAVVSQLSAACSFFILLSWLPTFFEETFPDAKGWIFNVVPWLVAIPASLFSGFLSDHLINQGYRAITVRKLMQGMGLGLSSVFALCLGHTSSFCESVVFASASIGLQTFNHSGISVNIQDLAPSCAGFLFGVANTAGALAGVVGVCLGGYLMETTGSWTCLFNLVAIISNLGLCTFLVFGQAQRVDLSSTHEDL

[2] = target: T2, VGAT (vesicular GABA transporter) (Rattus norvegicus, UniProt O35458); test: as above
T2 construct: gene Slc32a1; recombinant, expressed in insect cells or E. coli, Ni-NTA purified, reconstituted in asolectin liposomes
T2 sequence (O35458 1-525): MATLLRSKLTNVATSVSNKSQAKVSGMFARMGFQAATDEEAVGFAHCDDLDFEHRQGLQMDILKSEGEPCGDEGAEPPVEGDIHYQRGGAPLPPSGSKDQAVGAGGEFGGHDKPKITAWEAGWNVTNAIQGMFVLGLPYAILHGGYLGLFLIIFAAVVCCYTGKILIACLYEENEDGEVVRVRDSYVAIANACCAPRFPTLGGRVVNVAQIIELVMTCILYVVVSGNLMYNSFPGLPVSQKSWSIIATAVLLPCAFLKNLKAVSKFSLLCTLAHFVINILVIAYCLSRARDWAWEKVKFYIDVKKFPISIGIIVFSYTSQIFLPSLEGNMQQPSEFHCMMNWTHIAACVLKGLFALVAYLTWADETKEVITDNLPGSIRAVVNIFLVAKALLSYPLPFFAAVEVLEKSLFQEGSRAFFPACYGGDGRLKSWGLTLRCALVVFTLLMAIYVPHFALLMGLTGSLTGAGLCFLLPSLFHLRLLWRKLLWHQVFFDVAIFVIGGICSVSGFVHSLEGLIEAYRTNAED
Excerpt: inhibition of valinomycin-evoked radiolabelled substrate uptake into proteoliposomes on VGAT (vesicular GABA transporter)

[3] = target: T3, VMAT2 (vesicular monoamine transporter 2) (Rattus norvegicus, UniProt Q01827); test: inhibition of ATP-driven radiolabelled substrate uptake into proteoliposomes with F-ATPase
T3 construct: gene Slc18a2; recombinant, expressed in insect cells or E. coli, Ni-NTA purified, co-reconstituted with bacterial F-ATPase in liposomes
Excerpt: inhibition of ATP-driven radiolabelled substrate uptake into proteoliposomes with F-ATPase on VMAT2 (vesicular monoamine transporter 2)

[4] = target: T4, VEAT (vesicular excitatory amino acid transporter) (Mus musculus, UniProt Q8BN82); test: inhibition of valinomycin-evoked radiolabelled substrate uptake into proteoliposomes
T4 construct: gene Slc17a5; recombinant, expressed in insect cells or E. coli, Ni-NTA purified, reconstituted in asolectin liposomes
T4 sequence (Q8BN82 1-495): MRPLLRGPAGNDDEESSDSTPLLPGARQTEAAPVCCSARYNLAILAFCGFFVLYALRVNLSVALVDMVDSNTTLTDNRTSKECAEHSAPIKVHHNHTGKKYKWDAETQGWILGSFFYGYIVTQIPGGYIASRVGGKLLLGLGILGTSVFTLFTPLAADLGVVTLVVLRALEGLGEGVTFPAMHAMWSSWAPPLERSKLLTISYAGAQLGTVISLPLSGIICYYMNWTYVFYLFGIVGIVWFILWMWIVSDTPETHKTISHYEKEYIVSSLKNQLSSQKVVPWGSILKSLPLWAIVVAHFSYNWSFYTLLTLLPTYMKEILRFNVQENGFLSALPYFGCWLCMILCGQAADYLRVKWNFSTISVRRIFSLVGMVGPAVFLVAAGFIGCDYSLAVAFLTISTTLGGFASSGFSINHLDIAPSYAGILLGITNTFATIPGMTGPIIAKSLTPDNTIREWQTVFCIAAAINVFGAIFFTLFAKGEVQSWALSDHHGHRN
Excerpt: inhibition of valinomycin-evoked radiolabelled substrate uptake into proteoliposomes on VEAT (vesicular excitatory amino acid transporter)

[5] = target: T5, VAChT (vesicular acetylcholine transporter) (Homo sapiens, UniProt Q16572); test: inhibition of ATP-driven radiolabelled substrate uptake into proteoliposomes with F-ATPase
T5 construct: gene SLC18A3; recombinant, expressed in insect cells or E. coli, Ni-NTA purified, co-reconstituted with bacterial F-ATPase in liposomes
T5 sequence (Q16572 1-532): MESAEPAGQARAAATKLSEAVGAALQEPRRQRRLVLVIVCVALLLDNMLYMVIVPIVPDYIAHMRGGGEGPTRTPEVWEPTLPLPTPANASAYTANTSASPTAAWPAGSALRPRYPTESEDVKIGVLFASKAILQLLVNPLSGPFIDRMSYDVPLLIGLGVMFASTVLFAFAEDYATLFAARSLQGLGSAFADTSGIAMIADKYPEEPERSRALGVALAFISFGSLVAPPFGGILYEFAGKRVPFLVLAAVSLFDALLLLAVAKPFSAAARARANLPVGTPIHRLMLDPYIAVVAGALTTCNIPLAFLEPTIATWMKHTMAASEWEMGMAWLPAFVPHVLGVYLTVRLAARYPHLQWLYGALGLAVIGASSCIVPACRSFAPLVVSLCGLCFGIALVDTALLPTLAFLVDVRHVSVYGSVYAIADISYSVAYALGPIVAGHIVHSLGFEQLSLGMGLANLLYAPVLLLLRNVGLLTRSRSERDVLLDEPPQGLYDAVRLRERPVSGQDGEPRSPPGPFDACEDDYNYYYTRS
Excerpt: inhibition of ATP-driven radiolabelled substrate uptake into proteoliposomes with F-ATPase on VAChT (vesicular acetylcholine transporter)

[6] = read-out: IC50 (μmol/L) / Acetoacetate
[7] = read-out: IC50 (μmol/L) / Glyoxylate

T3 sequence (Q01827 whole entry): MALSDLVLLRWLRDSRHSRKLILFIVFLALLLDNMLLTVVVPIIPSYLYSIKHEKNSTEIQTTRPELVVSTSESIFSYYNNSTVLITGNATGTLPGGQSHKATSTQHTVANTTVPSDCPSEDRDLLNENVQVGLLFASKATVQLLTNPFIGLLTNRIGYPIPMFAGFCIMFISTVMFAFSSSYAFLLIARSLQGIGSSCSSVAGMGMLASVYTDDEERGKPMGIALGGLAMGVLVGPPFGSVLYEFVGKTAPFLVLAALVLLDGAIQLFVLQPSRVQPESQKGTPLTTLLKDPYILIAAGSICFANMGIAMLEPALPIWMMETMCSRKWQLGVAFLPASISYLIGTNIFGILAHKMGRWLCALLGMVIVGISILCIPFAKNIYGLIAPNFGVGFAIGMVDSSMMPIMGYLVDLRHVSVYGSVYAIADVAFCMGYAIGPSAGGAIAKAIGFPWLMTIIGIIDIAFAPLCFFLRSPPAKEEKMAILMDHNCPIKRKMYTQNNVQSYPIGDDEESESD

SMILES	IC50 [1, 6]	IC50 [2]	IC50 [3]	IC50 [4, 6]	IC50 [5]	IC50 [1, 7]	IC50 [4, 7]
CC(=O)CC(=O)O [acetoacetate]	190 µmol/L	> 10000 µM	> 10000 µM	130 µmol/L	> 10000 µM	–	–
O=CC(=O)O [glyoxylate]	–	> 10000 µM	> 10000 µM	–	> 10000 µM	4.1 µmol/L	52 µmol/L
